The source of these data is US20240317760A1, “TRK KINASE INHIBITOR COMPOUND AND USE THEREOF” (HENAN MEDINNO PHARMACEUTICAL TECHNOLOGY CO., LTD., priority 2021, published 2024).

Type in all cases: biochemical
For one assay, the target named is T1, TRKA (Homo sapiens, UniProt P04629).
T1 construct: purchased Carna 08-186
The assay is described as follows: Determination of inhibitory activity against TRKA kinase (ADP-Glo Kinase Assay). To be noted: ATP 5 μM, Poly (4:1 Glu, Tyr) Peptide 0.03 mg/ml. Here is the method: (§1) Assay: Determination of Inhibitory Activity Against TRKA/B/C Kinases
(§2) 1× volume of 5× kinase reaction buffer and 4× volume of water; 5 mM MgCl2; and 1 mM DTT.
(§3) • 1). Gradiently diluting a compound 4-fold in a dilution plate with DMSO, with a starting compound concentration of 1000 nM. • 2). Diluting the compound 50-fold into 1× kinase reaction buffer and shaking it on a shaker for 20 minutes. • 3). Formulating 2× kinase with 1× of enzyme reaction buffer. • 4). Adding 2 μl kinase (formulated in step 3) to each well of the reaction plate. • 5). Adding 1 μl of the compound diluted in buffer to each well, sealing the plate with a sealing membrane and centrifuging the plate at 1000 g for 30 seconds and leaving it at room temperature for 10 minutes. • 6). Formulating 4×ATP & sub mixture with 1× enzyme reaction buffer and adding 1 μl of 4×ATP & sub mixture to the reaction plate. • 7). Sealing the plate with a sealing membrane and centrifuging the plate at 1000 g for 30 seconds and allowing it to react at room temperature for 60 minutes. • 8). Transferring 4 μl of ADP-Glo to 384 reaction plate and centrifuging the plate at 1000 rpm/min for 1 min, and then incubating it at 25° C. for 40 min. • 9). Transferring 8 μl of Detection solution to 384 reaction plate and centrifuging the plate at 1000 rpm/min for 1 min and incubating it at 25° C. for 40 min. • 10) Reading the RLU (Relative luminescence unit) signal using a Biotek multifunctional plate reader. The signal intensity was used to characterize the activity degree of kinase.
(§4) The IC50 (half inhibition concentration) of a compound was obtained using the following non-linear fitting equation, wherein data analysis was performed using Graphpad 6.0 software.
(§5) Y=Bottom+(Top−Bottom)/(1+10^((Log IC50−X)*Hill Slope)) • X: log value of compound concentration; and Y: inhibition rate (% inhibition)
(§6) Data were exported from Biotek and analyzed manually. The ratios were converted to inhibition rates and IC50 was calculated by Prism GraphPad 6.0 from the inhibition rates. IC50 was calculated again by the ratios to verify accuracy of the results.

The target of another assay is T2, TRKB (Homo sapiens, UniProt Q16620).
T2 construct: purchased SignalChem N17-11G
The assay is described as follows: Determination of inhibitory activity against TRKB kinase (ADP-Glo Kinase Assay). To be noted: ATP 20 μM, Poly (4:1 Glu, Tyr) Peptide 0.03 mg/ml. How it is done: as §1, §2, §3, §4, §5, §6

Another assay has as its target T3, TRKC (Homo sapiens, UniProt Q16288).
T3 construct: purchased Carna 08-196
The assay is described as follows: Determination of inhibitory activity against TRKC kinase (ADP-Glo Kinase Assay). The settings on record: ATP 5 μM, Poly (4:1 Glu, Tyr) Peptide 0.03 mg/ml. Here is the method: as §1, §2, §3, §4, §5, §6

T3 sequence (Q16288 32-839): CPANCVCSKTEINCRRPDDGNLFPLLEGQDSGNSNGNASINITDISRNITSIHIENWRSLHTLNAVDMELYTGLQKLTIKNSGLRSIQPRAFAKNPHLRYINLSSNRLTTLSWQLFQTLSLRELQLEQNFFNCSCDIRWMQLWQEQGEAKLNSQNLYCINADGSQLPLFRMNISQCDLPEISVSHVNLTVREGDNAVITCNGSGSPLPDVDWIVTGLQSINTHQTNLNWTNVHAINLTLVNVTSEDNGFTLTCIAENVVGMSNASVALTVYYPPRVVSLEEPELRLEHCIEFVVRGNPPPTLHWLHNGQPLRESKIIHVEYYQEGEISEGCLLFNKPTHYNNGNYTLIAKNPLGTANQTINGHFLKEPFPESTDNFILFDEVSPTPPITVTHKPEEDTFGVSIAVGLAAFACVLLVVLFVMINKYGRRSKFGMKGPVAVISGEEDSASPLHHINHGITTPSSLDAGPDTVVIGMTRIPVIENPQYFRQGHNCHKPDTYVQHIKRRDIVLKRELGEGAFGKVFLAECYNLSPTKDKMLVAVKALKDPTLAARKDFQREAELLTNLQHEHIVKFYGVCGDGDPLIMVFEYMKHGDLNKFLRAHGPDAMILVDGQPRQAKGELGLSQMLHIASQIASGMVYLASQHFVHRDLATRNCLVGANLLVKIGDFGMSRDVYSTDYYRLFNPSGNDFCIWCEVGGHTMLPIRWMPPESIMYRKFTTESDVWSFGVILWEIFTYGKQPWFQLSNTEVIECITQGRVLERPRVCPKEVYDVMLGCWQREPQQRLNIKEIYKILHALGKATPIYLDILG
T2 sequence (Q16620 32-822): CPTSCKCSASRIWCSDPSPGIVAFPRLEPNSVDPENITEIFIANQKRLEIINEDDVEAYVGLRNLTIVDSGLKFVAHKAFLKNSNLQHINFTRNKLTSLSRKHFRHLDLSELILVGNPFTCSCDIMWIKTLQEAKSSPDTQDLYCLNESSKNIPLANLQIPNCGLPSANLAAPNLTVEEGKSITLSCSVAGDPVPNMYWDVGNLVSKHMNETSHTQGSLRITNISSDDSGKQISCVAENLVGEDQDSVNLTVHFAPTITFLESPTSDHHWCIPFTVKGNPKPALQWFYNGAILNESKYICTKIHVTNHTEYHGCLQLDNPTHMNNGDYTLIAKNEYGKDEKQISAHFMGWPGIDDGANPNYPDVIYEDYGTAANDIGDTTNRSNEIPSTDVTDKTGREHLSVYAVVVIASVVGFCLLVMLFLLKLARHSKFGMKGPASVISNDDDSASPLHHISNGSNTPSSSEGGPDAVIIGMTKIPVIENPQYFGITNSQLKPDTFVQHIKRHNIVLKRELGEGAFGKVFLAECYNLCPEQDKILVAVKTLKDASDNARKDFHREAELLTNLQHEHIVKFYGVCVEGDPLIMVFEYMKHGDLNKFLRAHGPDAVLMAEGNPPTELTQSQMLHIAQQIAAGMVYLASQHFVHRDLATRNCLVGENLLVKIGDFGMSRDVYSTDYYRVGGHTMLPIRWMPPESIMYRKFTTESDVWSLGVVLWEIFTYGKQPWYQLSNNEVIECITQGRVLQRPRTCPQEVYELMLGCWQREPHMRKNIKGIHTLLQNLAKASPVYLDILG
T1 sequence (P04629 33-796): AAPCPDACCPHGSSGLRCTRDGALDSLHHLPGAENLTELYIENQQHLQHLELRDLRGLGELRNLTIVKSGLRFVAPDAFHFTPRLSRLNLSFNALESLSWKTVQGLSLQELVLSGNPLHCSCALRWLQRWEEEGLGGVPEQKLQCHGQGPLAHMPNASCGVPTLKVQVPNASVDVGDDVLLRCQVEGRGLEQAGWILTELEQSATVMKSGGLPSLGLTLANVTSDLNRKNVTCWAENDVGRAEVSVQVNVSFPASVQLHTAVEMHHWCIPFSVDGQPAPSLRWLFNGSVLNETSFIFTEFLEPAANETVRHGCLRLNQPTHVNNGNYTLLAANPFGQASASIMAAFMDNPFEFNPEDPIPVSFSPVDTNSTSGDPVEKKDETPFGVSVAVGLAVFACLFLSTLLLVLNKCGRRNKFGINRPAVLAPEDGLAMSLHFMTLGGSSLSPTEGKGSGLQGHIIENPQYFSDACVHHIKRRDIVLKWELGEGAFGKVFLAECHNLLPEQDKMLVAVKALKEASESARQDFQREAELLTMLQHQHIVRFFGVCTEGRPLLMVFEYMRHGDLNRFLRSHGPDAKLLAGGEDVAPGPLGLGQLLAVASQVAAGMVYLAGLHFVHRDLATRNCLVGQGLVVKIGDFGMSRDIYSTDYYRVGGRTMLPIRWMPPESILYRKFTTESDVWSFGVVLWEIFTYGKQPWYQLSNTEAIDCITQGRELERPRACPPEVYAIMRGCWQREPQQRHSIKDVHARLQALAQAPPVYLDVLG

With `CC(Oc1ccc2[nH]nc(-c3nc4c([nH]3)CN(CC3CCCCN3)C4)c2c1)c1cc(F)cc(F)c1` (stereo not drawn) [Example 25, 5-(1-(3,5-Difluorophenyl)ethoxy)-3-(5-(piperidin-2-ylmethyl)-1,4,5,6-tetrahydropyrrolo[3,4-d]imidazol-2-yl)-1H-indazole], the figures for the IC50 against TRKA, at TRKB and at TRKC were 1.8 nM, 6.8 nM and 1.6 nM, respectively.

Consider `CC(Oc1ccc2[nH]nc(-c3nc4c([nH]3)CN(CC3CN(C)C3)C4)c2c1)c1cc(F)cc(F)c1` (stereo not drawn) [Example 26, 5-(1-(3,5-Difluorophenyl)ethoxy)-3-(5-((1-methylazetidin-3-yl)methyl)-1,4,5,6-tetrahydropyrrolo[3,4-d]imidazol-2-yl)-1H-indazole], for which the results for the IC50 at TRKA, on TRKB and at TRKC were 2.8 nM, 5.5 nM and 2 nM, respectively.

On to `CC(Oc1ccc2[nH]nc(-c3nc4c([nH]3)CN(CC3CCN(C5CCC5)CC3)C4)c2c1)c1cc(F)cc(F)c1` (stereo not drawn) [Example 27, 3-(5-((1-Cyclobutylpiperidin-4-yl)methyl)-1,4,5,6-tetrahydropyrrolo[3,4-d]imidazol-2-yl)-5-(1-(3,5-difluorophenyl)ethoxy)-1H-indazole], for which the IC50 was 0.42 nM on TRKA, 3.1 nM against TRKB and 3.5 nM against TRKC.

Turning to `CC(Oc1ccc2[nH]nc(-c3nc4c([nH]3)CN(CC3(C)CCN(C(C)C)CC3)C4)c2c1)c1cc(F)cc(F)c1` (stereo not drawn) [Example 28], the IC50 against TRKA was determined as 0.53 nM; against TRKB, 3.9 nM; at TRKC it was 1.4 nM.

For the molecule `CC(Oc1ccc2[nH]nc(-c3nc4c([nH]3)CN(C(=O)N3CCN(C)CC3)C4)c2c1)c1cc(F)cc(F)c1` (stereo not drawn) [Example 29, (2-(5-(1-(3,5-Difluorophenyl)ethoxy)-1H-indazol-3-yl)-4,6-dihydropyrrolo[3,4-d]imidazol-5(1H)-yl)(4-methylpiperazin-1-yl)ketone], the IC50 is 1.5 nM against TRKA, 2.2 nM against TRKB and 1.8 nM against TRKC.

As to `CC(Oc1ccc2[nH]nc(-c3nc4c([nH]3)CN(C(=O)OC3CCN(C)C3)C4)c2c1)c1cc(F)cc(F)c1` (stereo not drawn) [Example 30, 1-Methylpyrrolidin-3-yl 2-(5-(1-(3,5-difluorophenyl)ethoxy)-1H-indazol-3-yl)-4,6-dihydropyrrolo[3,4-d]imidazole-5(1H)-carboxylate], the values for the IC50 on TRKA, on TRKB and on TRKC were 0.94 nM, 2 nM and 1.2 nM, respectively.

In the case of `CC(Oc1ccc2[nH]nc(-c3nc4c([nH]3)CN(C(=O)OC3CN(C)C3)C4)c2c1)c1cc(F)cc(F)c1` (stereo not drawn) [Example 31, 1-Methylazetidin-3-yl 2-(5-(1-(3,5-difluorophenyl)ethoxy)-1H-indazol-3-yl)-4,6-dihydropyrrolo[3,4-d]imidazole-5(1H)-carboxylate], the IC50 on TRKA came out at 1.1 nM; against TRKB, 4.3 nM; on TRKC it was 1.1 nM.

`C[C@@H](Oc1ccc2[nH]nc(-c3nc4c([nH]3)CN(CC3CCN(C)CC3)C4)c2c1)c1cc(F)cc(F)c1` [Example 32]: the IC50 on TRKA is 0.23 nM; at TRKB, 0.63 nM; on TRKC, 0.43 nM.

For `CC(Oc1ccc2[nH]nc(-c3nc4c([nH]3)CN(C(=O)OC3CCCN(C)C3)C4)c2c1)c1cc(F)cc(F)c1` (stereo not drawn) [Example 33, 1-Methylpiperidin-3-yl 2-(5-(1-(3,5-difluorophenyl)ethoxy)-1H-indazol-3-yl)-4,6-dihydropyrrolo[3,4-d]imidazole-5(1H)-carboxylate], the values for the half-inhibitory concentration (IC50) at TRKA, on TRKB and on TRKC were 0.46 nM, 4.1 nM and 1.2 nM, respectively.

Take `CC(Oc1ccc2[nH]nc(-c3nc4c([nH]3)CN(C(C)C3CN(C)C3)C4)c2c1)c1cc(F)cc(F)c1` (stereo not drawn) [Example 34, 5-(1-(3,5-Difluorophenyl)ethoxy)-3-(5-(1-(1-methylazetidin-3-yl)ethyl)-1,4,5,6-tetrahydropyrrolo[3,4-d]imidazol-2-yl)-1H-indazole]: the results for the IC50 on TRKA, against TRKB and on TRKC were 4.6 nM, 2 nM and 4.5 nM, respectively.

For the molecule `CCN1CCC(N2Cc3nc(-c4n[nH]c5ccc(OC(C)c6cc(F)cc(F)c6)cc45)[nH]c3C2)CC1` (stereo not drawn) [Example 38, 5-(1-(3,5-Difluorophenyl)ethoxy)-3-(5-(1-ethylpiperidin-4-yl)-1,4,5,6-tetrahydropyrrolo[3,4-d]imidazol-2-yl)-1H indazole], the IC50 amounted to 4.1 nM at TRKA, 1.9 nM at TRKB and 3.6 nM against TRKC.

Regarding `CC(Oc1ccc2[nH]nc(-c3nc4c([nH]3)CN(C3CC5(C3)CN(C)C5)C4)c2c1)c1cc(F)cc(F)c1` (stereo not drawn) [Example 39, 5-(1-(3,5-Difluorophenyl)ethoxy)-3-(5-(2-methyl-2-azaspiro[3.3]heptan-6-yl)-1,4,5,6-tetrahydropyrrolo[3,4-d]imidazol-2-yl)-1H-indazole], the 50% inhibitory concentration (IC50) turned out to be 6.8 nM on TRKA, 1 nM on TRKB and 2.3 nM at TRKC.

For `CC(Oc1ccc2[nH]nc(-c3nc4c([nH]3)CN(C3CCN(C)C3)C4)c2c1)c1cc(F)cc(F)c1` (stereo not drawn) [Example 41, 5-(1-(3,5-Difluorophenyl)ethoxy)-3-(5-(1-methylpyrrolidin-3-yl)-1,4,5,6-tetrahydropyrrolo[3,4-d]imidazol-2-yl)-1H indazole], the IC50 against TRKA was found to be 7.4 nM; on TRKB it was 3 nM; against TRKC it was 7.7 nM.

Take `CC(Oc1ccc2[nH]nc(-c3nc4c([nH]3)CN(CC3CCCN3)C4)c2c1)c1cc(F)cc(F)c1` (stereo not drawn) [Example 42, 5-(1-(3,5-Difluorophenyl)ethoxy)-3-(5-(pyrrolidin-2-ylmethyl)-1,4,5,6-tetrahydropyrrolo[3,4-d]imidazol-2-yl)-1H-indazole]: the IC50 stood at 1 nM against TRKA, 1.1 nM on TRKB and 1.5 nM against TRKC.

For the molecule `CCN1CCCC(N2Cc3nc(-c4n[nH]c5ccc(OC(C)c6cc(F)cc(F)c6)cc45)[nH]c3C2)C1` (stereo not drawn) [Example 43, 5-(1-(3,5-Difluorophenyl)ethoxy)-3-(5-(1-ethylpiperidin-3-yl)-1,4,5,6-tetrahydropyrrolo[3,4-d]imidazol-2-yl)-1H indazole], the values for the concentration for half-maximal inhibition (IC50) on TRKA, against TRKB and at TRKC were 1.9 nM, 1.4 nM and 2.9 nM, respectively.

For the molecule `CC(Oc1ccc2[nH]nc(-c3nc4c([nH]3)CN(C3CC(N(C)C)C3)C4)c2c1)c1cc(F)cc(F)c1` (stereo not drawn) [Example 44], the IC50 against TRKA came to 1.4 nM; at TRKB, 0.64 nM; at TRKC, 1.8 nM.

In the case of `CC(Oc1ccc2[nH]nc(-c3nc4c([nH]3)CN(C3CCCC(N(C)C)C3)C4)c2c1)c1cc(F)cc(F)c1` (stereo not drawn) [Example 45, 3-(2-(5-(1-(3,5-difluorophenyl)ethoxy)-1H-indazol-3-yl)-4,6-dihydropyrrolo[3,4-d]imidazol-5(1H)-yl)-N,N-dimethyl cyclohexan-1-amine], the IC50 on TRKA came to 1.6 nM; at TRKB, 0.83 nM; against TRKC, 1.7 nM.

As to `CC(Oc1ccc2[nH]nc(-c3nc4c([nH]3)CN(C3CCC(N(C)C)C3)C4)c2c1)c1cc(F)cc(F)c1` (stereo not drawn) [Example 46, 3-(2-(5-(1-(3,5-Difluorophenyl)ethoxy)-1H-indazol-3-yl)-4,6-dihydropyrrolo[3,4-d]imidazol-5(1H)-yl)-N,N-dimethyl cyclopentan-1-amine], the IC50 was 10.6 nM on TRKA, 1.4 nM against TRKB and 2.9 nM against TRKC.

Turning to `CC(Oc1ccc2[nH]nc(-c3nc4c([nH]3)CN(CC3CCN(C)CC3)C4)c2c1)c1cc(F)cc(C#N)c1` (stereo not drawn) [Example 47], the IC50 against TRKA was 14.2 nM; on TRKB, 8.9 nM; against TRKC, 8.6 nM.

For `CCC(Oc1ccc2[nH]nc(-c3nc4c([nH]3)CN(CC3CCN(C)CC3)C4)c2c1)c1cc(F)cc(F)c1` (stereo not drawn) [Example 48, 5-(1-(3,5-Difluorophenyl)propoxy)-3-(5-((1-methylpiperidin-4-yl)methyl)-1,4,5,6-tetrahydropyrrolo[3,4-d]imidazol-2-yl)-1 H-indazole], the IC50 against TRKA stood at 4.5 nM; at TRKB, 4.2 nM; against TRKC it was 6.1 nM.
